The experiment addresses T1, full-length beta-Catenin (Uniprot ID P35222) (Homo sapiens, UniProt P35222).
T1 construct: 10 nM full-length beta-Catenin (Uniprot ID P35222)
T1 sequence (P35222 1-781): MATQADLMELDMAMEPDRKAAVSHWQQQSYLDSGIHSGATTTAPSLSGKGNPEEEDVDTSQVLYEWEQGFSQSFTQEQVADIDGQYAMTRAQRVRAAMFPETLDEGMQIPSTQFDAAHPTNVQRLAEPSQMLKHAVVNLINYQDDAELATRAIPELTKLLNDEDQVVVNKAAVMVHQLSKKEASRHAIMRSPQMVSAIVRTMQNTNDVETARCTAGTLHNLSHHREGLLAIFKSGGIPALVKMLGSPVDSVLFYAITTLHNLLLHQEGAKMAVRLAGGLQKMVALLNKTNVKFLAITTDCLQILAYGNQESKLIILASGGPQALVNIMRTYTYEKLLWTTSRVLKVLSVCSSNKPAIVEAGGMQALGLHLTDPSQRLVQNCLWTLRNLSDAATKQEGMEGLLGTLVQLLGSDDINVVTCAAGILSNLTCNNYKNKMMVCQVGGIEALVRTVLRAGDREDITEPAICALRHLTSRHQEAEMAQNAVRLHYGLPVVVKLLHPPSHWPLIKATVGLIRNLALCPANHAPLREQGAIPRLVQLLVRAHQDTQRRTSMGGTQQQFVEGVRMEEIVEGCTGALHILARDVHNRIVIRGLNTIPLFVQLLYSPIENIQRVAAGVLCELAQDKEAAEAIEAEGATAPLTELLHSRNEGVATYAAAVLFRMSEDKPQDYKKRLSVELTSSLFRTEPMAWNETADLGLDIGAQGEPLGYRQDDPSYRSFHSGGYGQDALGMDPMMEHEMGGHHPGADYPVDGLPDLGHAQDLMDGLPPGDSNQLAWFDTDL
Briefly: Fluorescence polarization IC50 (beta-catenin / 5FAM-TCF4 10-53 competition). The class given is binding. The following applies: fluorescence polarization; read-out: beta-Catenin FP IC50. For orientation: Fluorescence polarisation rises when a labelled molecule tumbles more slowly, as on binding a larger partner.
Broadly, the IC50 is the midpoint of a concentration-inhibition curve. Take `CC(=O)N1CCC[C@]12CC=CCCCC1(CCCC=CCCCOC(=O)N3CC[C@@](C(=O)N[C@@H](Cc4ccccc4)C(=O)N[C@@H](Cc4csc5ccccc45)C(=O)N[C@@H](C)C(N)=O)(C3)NC(=O)[C@H](CC(C)C)NC(=O)[C@H](Cc3ccccc3)NC(=O)[C@H](C)NC(=O)[C@H](CCCCNC(C)C)NC(=O)[C@H](CCC(N)=O)NC(=O)[C@H](CC(=O)O)NC1=O)NC(=O)[C@H](CC1CCCCC1)NC(=O)[C@H](CC(N)=O)NC2=O` (stereo partly drawn) [I-2352, Ac-PL3-Asn-Cha-B5-Asp-Gln-iPrLys-Ala-Phe-Leu-PyrS2-Phe-BztA-Ala-NH2]: the half-inhibitory concentration (IC50) was found to be 211 nM. Regarding `CC(=O)N1CCC[C@]12CC=CCCCC1(CCCC=CCCCOC(=O)N3CC[C@@](C(=O)N[C@@H](Cc4ccccc4)C(=O)N[C@@H](Cc4csc5ccccc45)C(=O)N[C@@H](CCC(N)=O)C(N)=O)(C3)NC(=O)[C@H](CC(C)C)NC(=O)[C@H](Cc3ccccc3)NC(=O)[C@H](C)NC(=O)[C@H](CCCCNC(C)C)NC(=O)[C@H](CCC(N)=O)NC(=O)[C@H](CC(=O)O)NC1=O)NC(=O)[C@H](CC1CCCCC1)NC(=O)[C@H](CCO)NC2=O` (stereo partly drawn) [I-2353, Ac-PL3-Hse-Cha-B5-Asp-Gln-iPrLys-Ala-Phe-Leu-PyrS2-Phe-BztA-Gln-NH2], the IC50 was 2760 nM.

As to `CC(=O)N1CCC[C@]12CC=CCCCC1(CCCC=CCCCOC(=O)N3CC[C@@](C(=O)N[C@@H](Cc4ccccc4)C(=O)N[C@@H](Cc4csc5ccccc45)C(=O)N[C@@H](CCC(N)=O)C(N)=O)(C3)NC(=O)[C@H](CC(C)C)NC(=O)[C@H](Cc3ccccc3)NC(=O)[C@H](C)NC(=O)[C@H](CCO)NC(=O)[C@H](CCC(N)=O)NC(=O)[C@H](CC(=O)O)NC1=O)NC(=O)[C@H](CC1CCCCC1)NC(=O)[C@H](CC(N)=O)NC2=O` (stereo partly drawn) [I-2355, Ac-PL3-Asn-Cha-B5-Asp-Gln-Hse-Ala-Phe-Leu-PyrS2-Phe-BztA-Gln-NH2], the concentration for half-maximal inhibition (IC50) stood at 417 nM. The value for `CCOC(=O)C[C@@H]1NC(=O)[C@]2(CC=CCCCC3(CCCC=CCCCOC(=O)N4CC[C@@](C(=O)N[C@@H](Cc5ccsc5)C(=O)N[C@@H](Cc5csc6ccccc56)C(=O)N[C@@H](CCC(N)=O)C(N)=O)(C4)NC(=O)[C@H](CC(C)C)NC(=O)[C@H](Cc4ccccc4)NC(=O)[C@H](C)NC(=O)[C@H](C)NC(=O)[C@H](CC(=O)O)NC(=O)[C@H](CC(=O)O)NC3=O)NC(=O)[C@H](CC(C)(C)C)NC1=O)CCCN2C(C)=O` (stereo partly drawn) [I-2356, Ac-PL3-[Et]AspE-Npg-B5-Asp-Asp-Ala-Ala-Phe-Leu-PyrS2-3Thi-BztA-Gln-NH2] was 5270 nM. The same measure for `CCOC(=O)C[C@@H]1NC(=O)[C@H](CC(=O)O)NC(=O)C2(CCCC=CCCCOC(=O)N3CC[C@@](C(=O)N[C@@H](Cc4ccsc4)C(=O)N[C@@H](Cc4csc5ccccc45)C(=O)N[C@@H](CCC(N)=O)C(N)=O)(C3)NC(=O)[C@H](CC(C)C)NC(=O)[C@H](Cc3ccccc3)NC(=O)[C@H](C)NC(=O)[C@H](C)NC1=O)CCCC=CC[C@]1(CCCN1C(C)=O)C(=O)N[C@@H](CC(=O)O)C(=O)N[C@@H](CC(C)(C)C)C(=O)N2` (stereo partly drawn) [I-2358, Ac-PL3-Asp-Npg-B5-Asp-[Et]AspE-Ala-Ala-Phe-Leu-PyrS2-3Thi-BztA-Gln-NH2]: 463 nM; for `COC(=O)N1CCC[C@]12CC=CCCCC1(CCCC=CCCCOC(=O)N3CC[C@@](C(=O)N[C@@H](Cc4ccsc4)C(=O)N[C@@H](Cc4csc5ccccc45)C(=O)N[C@@H](Cc4c[nH]cn4)C(N)=O)(C3)NC(=O)[C@H](CCC(N)=O)NC(=O)[C@H](Cc3ccccc3)NC(=O)[C@H](C)NC(=O)[C@H](C)NC(=O)[C@H](CC(=O)O)NC(=O)[C@H](CC(=O)O)NC1=O)NC(=O)[C@H](CC(C)(C)C)NC(=O)[C@H](CC(=O)O)NC2=O` (stereo partly drawn) [I-2362, CO2Me-PL3-Asp-Npg-B5-Asp-Asp-Ala-Ala-Phe-Gln-PyrS2-3Thi-BztA-His-NH2]: 66 nM. The same measure for `CCCCOC(=O)N1CCC[C@]12CC=CCCCC1(CCCC=CCCCOC(=O)N3CC[C@@](C(=O)N[C@@H](Cc4ccsc4)C(=O)N[C@@H](Cc4csc5ccccc45)C(=O)N[C@@H](Cc4c[nH]cn4)C(N)=O)(C3)NC(=O)[C@H](CCC(N)=O)NC(=O)[C@H](Cc3ccccc3)NC(=O)[C@H](C)NC(=O)[C@H](C)NC(=O)[C@H](CC(=O)O)NC(=O)[C@H](CC(=O)O)NC1=O)NC(=O)[C@H](CC(C)(C)C)NC(=O)[C@H](CC(=O)O)NC2=O` (stereo partly drawn) [I-2363, CO2Bu-PL3-Asp-Npg-B5-Asp-Asp-Ala-Ala-Phe-Gln-PyrS2-3Thi-BztA-His-NH2]: 44 nM. For the compound `CC(C)COC(=O)N1CCC[C@]12CC=CCCCC1(CCCC=CCCCOC(=O)N3CC[C@@](C(=O)N[C@@H](Cc4ccsc4)C(=O)N[C@@H](Cc4csc5ccccc45)C(=O)N[C@@H](Cc4c[nH]cn4)C(N)=O)(C3)NC(=O)[C@H](CCC(N)=O)NC(=O)[C@H](Cc3ccccc3)NC(=O)[C@H](C)NC(=O)[C@H](C)NC(=O)[C@H](CC(=O)O)NC(=O)[C@H](CC(=O)O)NC1=O)NC(=O)[C@H](CC(C)(C)C)NC(=O)[C@H](CC(=O)O)NC2=O` (stereo partly drawn) [I-2364, CO2iBu-PL3-Asp-Npg-B5-Asp-Asp-Ala-Ala-Phe-Gln-PyrS2-3Thi-BztA-His-NH2], the IC50 was 116 nM. The same measure for `CCOC(=O)CC[C@@H]1NC(=O)[C@H](CC(=O)O)NC(=O)C2(CCCC=CCCCOC(=O)N3CC[C@@](C(=O)N[C@@H](Cc4ccsc4)C(=O)N[C@@H](Cc4csc5ccccc45)C(=O)N[C@@H](CCC(N)=O)C(N)=O)(C3)NC(=O)[C@H](CC(C)C)NC(=O)[C@H](Cc3ccccc3)NC(=O)[C@H](C)NC(=O)[C@H](C)NC1=O)CCCC=CC[C@]1(CCCN1C(C)=O)C(=O)N[C@@H](CC(=O)O)C(=O)N[C@@H](CC(C)(C)C)C(=O)N2` (stereo partly drawn) [I-2365, Ac-PL3-Asp-Npg-B5-Asp-[Et]GluE-Ala-Ala-Phe-Leu-PyrS2-3Thi-BztA-Gln-NH2]: 3440 nM. As to `COC(=O)CC[C@@H]1NC(=O)[C@H](CC(=O)O)NC(=O)C2(CCCC=CCCCOC(=O)N3CC[C@@](C(=O)N[C@@H](Cc4ccsc4)C(=O)N[C@@H](Cc4csc5ccccc45)C(=O)N[C@@H](CCC(N)=O)C(N)=O)(C3)NC(=O)[C@H](CC(C)C)NC(=O)[C@H](Cc3ccccc3)NC(=O)[C@H](C)NC(=O)[C@H](C)NC1=O)CCCC=CC[C@]1(CCCN1C(C)=O)C(=O)N[C@@H](CC(=O)O)C(=O)N[C@@H](CC(C)(C)C)C(=O)N2` (stereo partly drawn) [I-2366, Ac-PL3-Asp-Npg-B5-Asp-[Me]GluE-Ala-Ala-Phe-Leu-PyrS2-3Thi-BztA-Gln-NH2], the IC50 came out at 1740 nM. The same measure for `CC(=O)N1CCC[C@]12CC=CCCCC1(CCCC=CCCCOC(=O)N3CC[C@@](C(=O)N[C@@H](Cc4ccccc4C(F)(F)F)C(=O)N[C@@H](Cc4csc5ccccc45)C(=O)N[C@@H](CO)C(N)=O)(C3)NC(=O)[C@H](CC(C)C)NC(=O)[C@H](Cc3ccccc3)NC(=O)[C@H](C)NC(=O)[C@H](C)NC(=O)[C@H](Cn3cc(CCC(=O)O)nn3)NC(=O)[C@H](CC(=O)O)NC1=O)NC(=O)[C@H](CC(C)(C)C)NC(=O)[C@H](CC(=O)O)NC2=O` (stereo partly drawn) [I-2370, Ac-PL3-Asp-Npg-B5-Asp-[CH2CH2CO2H]TriAzDap-Ala-Ala-Phe-Leu-PyrS2-2F3MeF-BztA-Ser-NH2]: 12 nM; for `CC(C)C[C@@H]1NC(=O)[C@H](Cc2ccccc2)NC(=O)[C@H](C)NC(=O)[C@H](C)NC(=O)[C@H](CN(CC(=O)O)CC(F)(F)F)NC(=O)[C@H](CC(=O)O)NC(=O)C2(CCCCCCCCOC(=O)N3CC[C@@](C(=O)N[C@@H](Cc4ccsc4)C(=O)N[C@@H](Cc4csc5ccccc45)C(=O)N[C@@H](CCC(N)=O)C(N)=O)(C3)NC1=O)CCCCCCOc1cccc(c1)C(=O)N[C@@H](CC(=O)O)C(=O)N[C@@H](CC(C)(C)C)C(=O)N2` (stereo partly drawn) [I-2376, BzAm3OAllyl-Asp-Npg-B5-Asp-TfeGA-Ala-Ala-Phe-Leu-PyrS2-3Thi-BztA-Gln-NH2]: 352 nM.
